Legend:
Format in all cases: biochemical
[1] = target: PDE1C (Homo sapiens, UniProt Q14123); assay: PDE1 inhibition assay (PDE1C), SPA with tritium labelled cAMP; settings: 15 nM tritium labelled cAMP, 1 hr at room temperature, SPA beads
[2] = target: PDE1B (Homo sapiens, UniProt Q01064); assay: PDE1 inhibition assay (PDE1B), SPA with tritium labelled cAMP; settings: 15 nM tritium labelled cAMP, 1 hr at room temperature, SPA beads; read-out: PDE1B, IC50
Experimental: Reactions were initiated by addition of the cyclic nucleotide substrate, and reactions were allowed to proceed for 1 hr at room temperature before being terminated through mixing with 20 μL (0.2 mg) yttrium silicate SPA beads (PerkinElmer).

[3] = target: PDE1A (Homo sapiens, UniProt P54750); assay: PDE1 inhibition assay (PDE1A), SPA with tritium labelled cAMP; settings: 15 nM tritium labelled cAMP, 1 hr at room temperature, SPA beads
Sequence of PDE1A (P54750 whole entry): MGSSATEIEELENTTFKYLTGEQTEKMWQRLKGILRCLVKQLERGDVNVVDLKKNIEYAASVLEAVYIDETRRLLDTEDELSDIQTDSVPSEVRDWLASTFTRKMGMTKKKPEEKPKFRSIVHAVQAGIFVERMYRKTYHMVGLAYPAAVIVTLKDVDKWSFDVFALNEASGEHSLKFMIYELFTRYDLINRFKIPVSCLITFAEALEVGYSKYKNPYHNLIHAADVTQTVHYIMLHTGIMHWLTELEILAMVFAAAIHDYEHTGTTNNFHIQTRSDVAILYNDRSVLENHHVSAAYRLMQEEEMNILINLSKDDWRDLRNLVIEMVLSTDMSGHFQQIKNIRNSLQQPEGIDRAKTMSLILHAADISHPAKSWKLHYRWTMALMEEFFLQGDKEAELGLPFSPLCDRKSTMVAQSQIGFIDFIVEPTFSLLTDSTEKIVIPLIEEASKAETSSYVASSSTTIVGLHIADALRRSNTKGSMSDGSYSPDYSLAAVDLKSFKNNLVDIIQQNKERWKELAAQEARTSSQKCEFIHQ

Sequence of PDE1B (Q01064 whole entry): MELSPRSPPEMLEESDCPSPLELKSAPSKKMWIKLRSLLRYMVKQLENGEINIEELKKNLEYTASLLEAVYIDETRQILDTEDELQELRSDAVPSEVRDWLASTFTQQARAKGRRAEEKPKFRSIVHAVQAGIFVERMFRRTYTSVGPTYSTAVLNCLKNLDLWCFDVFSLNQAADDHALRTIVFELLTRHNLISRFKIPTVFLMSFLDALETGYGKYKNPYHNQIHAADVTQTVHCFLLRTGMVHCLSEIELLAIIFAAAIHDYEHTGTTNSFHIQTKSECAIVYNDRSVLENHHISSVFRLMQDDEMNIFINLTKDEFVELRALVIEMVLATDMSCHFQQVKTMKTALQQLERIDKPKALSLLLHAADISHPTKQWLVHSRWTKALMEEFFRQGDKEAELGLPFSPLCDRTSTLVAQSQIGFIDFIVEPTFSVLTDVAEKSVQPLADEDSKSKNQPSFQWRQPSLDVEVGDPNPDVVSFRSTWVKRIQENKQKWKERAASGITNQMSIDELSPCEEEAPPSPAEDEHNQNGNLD
Sequence of PDE1C (Q14123 whole entry): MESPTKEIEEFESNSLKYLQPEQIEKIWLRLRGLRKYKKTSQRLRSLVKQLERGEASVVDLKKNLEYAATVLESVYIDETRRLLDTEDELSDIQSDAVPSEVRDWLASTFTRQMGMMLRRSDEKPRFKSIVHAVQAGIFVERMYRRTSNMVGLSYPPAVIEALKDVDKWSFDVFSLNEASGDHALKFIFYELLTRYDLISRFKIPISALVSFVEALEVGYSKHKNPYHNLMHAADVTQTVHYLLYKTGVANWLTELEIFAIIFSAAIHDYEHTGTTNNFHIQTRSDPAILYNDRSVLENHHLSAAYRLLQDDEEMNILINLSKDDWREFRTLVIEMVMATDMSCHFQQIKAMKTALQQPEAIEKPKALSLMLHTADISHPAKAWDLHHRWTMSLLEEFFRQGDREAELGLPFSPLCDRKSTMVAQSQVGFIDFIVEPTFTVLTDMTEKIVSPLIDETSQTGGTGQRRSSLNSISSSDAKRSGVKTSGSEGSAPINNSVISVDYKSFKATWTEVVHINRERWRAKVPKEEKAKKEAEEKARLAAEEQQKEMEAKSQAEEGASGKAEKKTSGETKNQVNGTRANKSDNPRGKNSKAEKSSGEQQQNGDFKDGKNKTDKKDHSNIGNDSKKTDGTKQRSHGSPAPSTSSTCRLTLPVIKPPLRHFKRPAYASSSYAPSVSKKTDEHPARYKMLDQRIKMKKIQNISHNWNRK

IC50 [1] [nM]	IC50 [2] [nM]	IC50 [3] [nM]	Structure (SMILES)
19	28	35	CCOc1ncccc1-c1cc(NCc2cccc3nccn23)c2c(C(C)C)nc(C)n2n1 [Example 79, 2-(2-ethoxy-3-pyridyl)-N-(imidazo[1,2-a]pyridin-5-ylmethyl)-5-isopropyl-7-methyl-imidazo[1,5-b]pyridazin-4-amine]
72	15	74	CCOc1ncccc1-c1cc(NCc2cccnc2C(F)(F)F)c2c(C(C)C)nc(C)n2n1 [Example 80, 2-(2-ethoxy-3-pyridyl)-5-isopropyl-7-methyl-N-[[2-(trifluoromethyl)-3-pyridyl]methyl]imidazo[1,5-b]pyridazin-4-amine]
2.5	0.29	3.8	Cc1nc(C(C)C)c2c(NCc3ncn(C)n3)cc(-c3cccc4ncoc34)nn12 [Example 81, 2-(1,3-benzoxazol-7-yl)-5-isopropyl-7-methyl-N-[(1-methyl-1,2,4-triazol-3-yl)methyl]imidazo[1,5-b]pyridazin-4-amine]
